Results: ChEMBL document CHEMBL3745645, “Synthesis, in vitro antitumor activity, dihydrofolate reductase inhibition, DNA intercalation and structure-activity relationship studies of 1,3,5-triazine analogues” (Bioorg Med Chem Lett, 2016)
Activity calls are given as the source filed them. The calls are words filed in the database; no cut-off is given here.

How the values were obtained:
Type in all cases: functional
CAKI-1 = assay: Cytotoxicity against human Caki1 cells at 10 uM after 48 hrs by SRB assay
[1] = Cytotoxicity against human RXF393 cells at 10 uM after 48 hrs by SRB assay; settings: RXF 393, 48 h, read-out: GI
SN12C = assay: Cytotoxicity against human SN12C cells at 10 uM after 48 hrs by SRB assay; settings: read-out: GI
[2] = Cytotoxicity against human TK10 cells at 10 uM after 48 hrs by SRB assay; settings: TK-10, 48 h, read-out: GI
[3] = Cytotoxicity against human UO31 cells at 10 uM after 48 hrs by SRB assay; settings: UO-31, 48 h, read-out: GI
[4] = Cytotoxicity against human DU145 cells at 10 uM after 48 hrs by SRB assay; settings: DU-145, 48 h, read-out: GI
MCF7 = assay: Cytotoxicity against human MCF7 cells at 10 uM after 48 hrs by SRB assay; settings: MCF7, 48 h, read-out: GI
MDA-MB-231 = assay: Cytotoxicity against human MDA-MB-231 cells at 10 uM after 48 hrs by SRB assay; settings: MDA-MB-231, 48 h, read-out: GI
[5] = Cytotoxicity against human Hs 578T cells at 10 uM after 48 hrs by SRB assay; settings: read-out: GI
[6] = Cytotoxicity against human BT549 cells at 10 uM after 48 hrs by SRB assay; settings: BT-549, 48 h, read-out: GI
T47D = assay: Cytotoxicity against human T47D cells at 10 uM after 48 hrs by SRB assay; settings: read-out: GI
MDA-MB-468 = assay: Cytotoxicity against human MDA-MB-468 cells at 10 uM after 48 hrs by SRB assay; settings: MDA-MB-468, 48 h, read-out: GI
CCRF-CEM = assay: Cytotoxicity against human CCRF-CEM cells at 10 uM after 48 hrs by SRB assay
[7] = Cytotoxicity against human HL-60(TB) cells at 10 uM after 48 hrs by SRB assay; settings: HL-60, 48 h, read-out: GI
K562 = assay: Cytotoxicity against human K562 cells at 10 uM after 48 hrs by SRB assay; settings: K562, 48 h, read-out: GI
[8] = Cytotoxicity against human MOLT4 cells at 10 uM after 48 hrs by SRB assay; settings: MOLT-4, 48 h, read-out: GI
[9] = Cytotoxicity against human RPMI8226 cells at 10 uM after 48 hrs by SRB assay; settings: RPMI-8226, 48 h, read-out: GI
SR = assay: Cytotoxicity against human SR cells at 10 uM after 48 hrs by SRB assay; settings: read-out: GI
A549 = assay: Cytotoxicity against human A549 cells at 10 uM after 48 hrs by SRB assay; settings: A549, 48 h, read-out: GI
[10] = Cytotoxicity against human HOP62 cells at 10 uM after 48 hrs by SRB assay; settings: HOP-62, 48 h, read-out: GI
[11] = Cytotoxicity against human HOP92 cells at 10 uM after 48 hrs by SRB assay; settings: HOP-92, 48 h, read-out: GI
NCI-H226 = assay: Cytotoxicity against human NCI-H226 cells at 10 uM after 48 hrs by SRB assay; settings: NCI-H226, 48 h, read-out: GI
NCI-H460 = assay: Cytotoxicity against human NCI-H460 cells at 10 uM after 48 hrs by SRB assay; settings: NCI-H460, 48 h, read-out: GI
NCI-H522 = assay: Cytotoxicity against human NCI-H522 cells at 10 uM after 48 hrs by SRB assay; settings: NCI-H522, 48 h, read-out: GI
[12] = Cytotoxicity against human COLO205 cells at 10 uM after 48 hrs by SRB assay; settings: COLO 205, 48 h, read-out: GI
[13] = Cytotoxicity against human HCC2998 cells at 10 uM after 48 hrs by SRB assay; settings: HCC 2998, 48 h, read-out: GI
[14] = Cytotoxicity against human HCT116 cells at 10 uM after 48 hrs by SRB assay; settings: HCT-116, 48 h, read-out: GI
[15] = Cytotoxicity against human HCT15 cells at 10 uM after 48 hrs by SRB assay; settings: HCT-15, 48 h, read-out: GI
HT-29 = assay: Cytotoxicity against human HT-29 cells at 10 uM after 48 hrs by SRB assay; settings: HT-29, 48 h, read-out: GI
KM12 = assay: Cytotoxicity against human KM12 cells at 10 uM after 48 hrs by SRB assay; settings: KM12, 48 h, read-out: GI
[16] = Cytotoxicity against human SW620 cells at 10 uM after 48 hrs by SRB assay; settings: SW-620, 48 h, read-out: GI
[17] = Cytotoxicity against human SF268 cells at 10 uM after 48 hrs by SRB assay; settings: SF-268, 48 h, read-out: GI
[18] = Cytotoxicity against human SF295 cells at 10 uM after 48 hrs by SRB assay; settings: SF-295, 48 h, read-out: GI
[19] = Cytotoxicity against human SF539 cells at 10 uM after 48 hrs by SRB assay; settings: SF-539, 48 h, read-out: GI
[20] = Cytotoxicity against human SNB19 cells at 10 uM after 48 hrs by SRB assay; settings: SNB-19, 48 h, read-out: GI
[21] = Cytotoxicity against human SNB75 cells at 10 uM after 48 hrs by SRB assay; settings: SNB-75, 48 h, read-out: GI
U-251 = assay: Cytotoxicity against human U251 cells at 10 uM after 48 hrs by SRB assay; settings: U-251, 48 h, read-out: GI
[22] = Cytotoxicity against human LOXIMVI cells at 10 uM after 48 hrs by SRB assay; settings: LOX IMVI, read-out: GI
Malme-3M = assay: Cytotoxicity against human MALME-3M cells at 10 uM after 48 hrs by SRB assay; settings: read-out: GI
M14 = assay: Cytotoxicity against human M14 cells at 10 uM after 48 hrs by SRB assay; settings: M14, 48 h, read-out: GI
MDA-MB-435 = assay: Cytotoxicity against human MDA-MB-435 cells at 10 uM after 48 hrs by SRB assay; settings: MDA-MB-435, 48 h, read-out: GI
SK-MEL-2 = assay: Cytotoxicity against human SK-MEL-2 cells at 10 uM after 48 hrs by SRB assay; settings: SK-MEL-2, 48 h, read-out: GI
SK-MEL-28 = assay: Cytotoxicity against human SK-MEL-28 cells at 10 uM after 48 hrs by SRB assay; settings: SK-MEL-28, 48 h, read-out: GI
SK-MEL-5 = assay: Cytotoxicity against human SK-MEL-5 cells at 10 uM after 48 hrs by SRB assay; settings: SK-MEL-5, 48 h, read-out: GI
[23] = Cytotoxicity against human UACC257 cells at 10 uM after 48 hrs by SRB assay; settings: UACC-257, 48 h, read-out: GI
[24] = Cytotoxicity against human IGROV1 cells at 10 uM after 48 hrs by SRB assay; settings: IGROV-1, 48 h, read-out: GI
[25] = Cytotoxicity against human OVCAR3 cells at 10 uM after 48 hrs by SRB assay; settings: OVCAR-3, 48 h, read-out: GI
[26] = Cytotoxicity against human OVCAR4 cells at 10 uM after 48 hrs by SRB assay; settings: OVCAR-4, 48 h, read-out: GI
OVCAR-5 = assay: Cytotoxicity against human OVCAR5 cells at 10 uM after 48 hrs by SRB assay
[27] = Cytotoxicity against human OVCAR8 cells at 10 uM after 48 hrs by SRB assay; settings: OVCAR-8, 48 h, read-out: GI
[28] = Cytotoxicity against human NCI-ADR-RES cells at 10 uM after 48 hrs by SRB assay; settings: read-out: GI
[29] = Cytotoxicity against human SKOV3 cells at 10 uM after 48 hrs by SRB assay; settings: SK-OV-3, 48 h, read-out: GI
786-0 = assay: Cytotoxicity against human 786-0 cells at 10 uM after 48 hrs by SRB assay; settings: 786-0, 48 h, read-out: GI
A498 = assay: Cytotoxicity against human A498 cells at 10 uM after 48 hrs by SRB assay; settings: A498, 48 h, read-out: GI
ACHN = assay: Cytotoxicity against human ACHN cells at 10 uM after 48 hrs by SRB assay; settings: read-out: GI

Cc1nc2cc(Nc3nc(Nc4ccc(F)cc4)nc(-c4ccccc4)n3)ccc2n1Cc1ccccc1
growth inhibition (GI) (CAKI-1): inactive | inhibition of growth at 10 µM [1]: 30.9% | inhibition of growth at 10 µM (SN12C): 21.9% | inhibition of growth at 10 µM [2]: 0.81% | inhibition of growth at 10 µM [3]: 43.4% | inhibition of growth at 10 µM [4]: 2.93% | inhibition of growth at 10 µM (MCF7): 54.9% | inhibition of growth at 10 µM (MDA-MB-231): 9.76% | inhibition of growth at 10 µM [5]: 20.4% | inhibition of growth at 10 µM [6]: 4.6% | inhibition of growth at 10 µM (T47D): 55.5% | inhibition of growth at 10 µM (MDA-MB-468): 27.6% | growth inhibition (GI) (CCRF-CEM): inactive | inhibition of growth at 10 µM [7]: 36.3% | inhibition of growth at 10 µM (K562): 38.2% | inhibition of growth at 10 µM [8]: 41.8% | inhibition of growth at 10 µM [9]: 53% | inhibition of growth at 10 µM (SR): 68.2% | inhibition of growth at 10 µM (A549): 32.5% | inhibition of growth at 10 µM [10]: 5.32% | inhibition of growth at 10 µM [11]: 35.6% | inhibition of growth at 10 µM (NCI-H226): 19.3% | inhibition of growth at 10 µM (NCI-H460): 16.8% | inhibition of growth at 10 µM (NCI-H522): 24.1% | inhibition of growth at 10 µM [12]: 29.5% | inhibition of growth at 10 µM [13]: 12% | inhibition of growth at 10 µM [14]: 39.7% | inhibition of growth at 10 µM [15]: 32.4% | inhibition of growth at 10 µM (HT-29): 40.6% | inhibition of growth at 10 µM (KM12): 39.8% | inhibition of growth at 10 µM [16]: 15.4% | inhibition of growth at 10 µM [17]: 23.8% | inhibition of growth at 10 µM [18]: 17.3% | inhibition of growth at 10 µM [19]: 0.21% | inhibition of growth at 10 µM [20]: 31.5% | inhibition of growth at 10 µM [21]: 28.4% | inhibition of growth at 10 µM (U-251): 36.6% | inhibition of growth at 10 µM [22]: 12.3% | inhibition of growth at 10 µM (Malme-3M): 11.4% | inhibition of growth at 10 µM (M14): 34.1% | inhibition of growth at 10 µM (MDA-MB-435): 40% | inhibition of growth at 10 µM (SK-MEL-2): 25.4% | inhibition of growth at 10 µM (SK-MEL-28): 5.63% | inhibition of growth at 10 µM (SK-MEL-5): 14.5% | inhibition of growth at 10 µM [23]: 18.7% | inhibition of growth at 10 µM [24]: 31% | inhibition of growth at 10 µM [25]: 18.8% | inhibition of growth at 10 µM [26]: 39.8% | growth inhibition (GI) (OVCAR-5): inactive | inhibition of growth at 10 µM [27]: 32.2% | inhibition of growth at 10 µM [28]: 29.5% | inhibition of growth at 10 µM [29]: 1.78% | inhibition of growth at 10 µM (786-0): 18.4% | inhibition of growth at 10 µM (A498): 23.2% | inhibition of growth at 10 µM (ACHN): 23.6%
